These results are taken from ChEMBL document CHEMBL1134864, “Synthesis and biological evaluation of 9-substituted tetracycline derivatives” (2002).

The structures appear in SMILES notation. ≈ marks a conversion by molar mass, not a printed value. Bounds are passed on as bounds.

Holding throughout (format): functional
The test system of one assay is Enterococcus faecalis. Put plainly: Minimum inhibition concentration against Enterococcus faecalis.
Assay [1] concerns Staphylococcus aureus. Nature of the assay: Minimum inhibition concentration against Methicillin resistant Staphylococcus aureus.
Assay [2] deals with Staphylococcus aureus. Nature of the assay: Minimum inhibition concentration against Staphylococcus aureus.

Regarding `C[C@H]1c2cccc(O)c2C(=O)C2=C(O)[C@]3(O)C(=O)C(C(N)=O)=C(O)[C@@H](N(C)C)[C@@H]3[C@@H](O)[C@@H]21.O` [DOXYCYCLINE], the figures for the MIC against Enterococcus faecalis, with Staphylococcus aureus [1] and against Staphylococcus aureus [2] were 6.25 µg/mL, 6.25 µg/mL and above 50 µg/mL, respectively.

On to `C#Cc1ccc2c(c1O)C(=O)C1=C(O)[C@]3(O)C(O)=C(C(N)=O)C(=O)[C@@H](N(C)C)C3[C@@H](O)C1[C@H]2C` (stereo partly specified), for which the MIC in the assay with Enterococcus faecalis was found to be 0.78 µg/mL (≈ 1.67 µM); with Staphylococcus aureus [1] it was 0.39 µg/mL (≈ 0.833 µM); against Staphylococcus aureus [2], 1.56 µg/mL (≈ 3.33 µM).

Consider `CN(C)c1ccc(O)c2c1C[C@H]1C[C@H]3[C@H](N(C)C)C(O)=C(C(N)=O)C(=O)[C@@]3(O)C(O)=C1C2=O` [MINOCYCLINE], for which the figures for the MIC against Enterococcus faecalis, in the assay with Staphylococcus aureus [1] and against Staphylococcus aureus [2] were below 0.098 µg/mL, 6.25 µg/mL (≈ 13.7 µM) and 3.12 µg/mL (≈ 6.82 µM), respectively.

In the case of `C[C@H]1c2ccc(-c3ccc(N)cc3)c(O)c2C(=O)C2=C(O)[C@]3(O)C(O)=C(C(N)=O)C(=O)[C@@H](N(C)C)C3[C@@H](O)C21` (stereo partly specified), the MIC against Enterococcus faecalis was found to be 3.12 µg/mL (≈ 5.83 µM); with Staphylococcus aureus [1], 1.56 µg/mL (≈ 2.91 µM); against Staphylococcus aureus [2], 3.12 µg/mL (≈ 5.83 µM).

In the case of `C[C@H]1c2ccc(-c3ccc([N+](=O)[O-])cc3)c(O)c2C(=O)C2=C(O)[C@]3(O)C(O)=C(C(N)=O)C(=O)[C@@H](N(C)C)C3[C@@H](O)C21` (stereo partly specified), the MIC against Enterococcus faecalis came to 0.78 µg/mL (≈ 1.38 µM); in the assay on Staphylococcus aureus [1], 0.39 µg/mL (≈ 0.69 µM); against Staphylococcus aureus [2], 3.12 µg/mL (≈ 5.52 µM).

Turning to `C[C@H]1c2ccc(-c3ccccc3)c(O)c2C(=O)C2=C(O)[C@]3(O)C(O)=C(C(N)=O)C(=O)[C@@H](N(C)C)C3[C@@H](O)C21` (stereo partly specified), the MIC in the assay with Enterococcus faecalis is 1.56 µg/mL (≈ 3 µM); against Staphylococcus aureus [1] it was 0.78 µg/mL (≈ 1.5 µM); in the assay with Staphylococcus aureus [2], 3.12 µg/mL (≈ 5.99 µM).

As for `C=Cc1ccc2c(c1O)C(=O)C1=C(O)[C@]3(O)C(O)=C(C(N)=O)C(=O)[C@@H](N(C)C)C3[C@@H](O)C1[C@H]2C` (stereo partly specified), the MIC against Enterococcus faecalis is below 0.098 µg/mL; with Staphylococcus aureus [1], below 0.098 µg/mL; in the assay with Staphylococcus aureus [2] it was 1.56 µg/mL (≈ 3.32 µM).
